Experimental findings from patent US7888339B2, “2-methylene-20(21)-dehydro-19-nor-vitamin D analogs” (Wisconsin Alumni Research Foundation, priority 2008, dated 2011) are described below.

Molecules are shown by their SMILES.

In assay [1] the target is T1, full-length recombinant rat vitamin D receptor (Rattus norvegicus, UniProt P13053).
T1 construct: Full-length recombinant rat receptor was expressed in E. coli; histidine tag (C); made in house; host or cells: E. coli BL21 (DE3) Codon Plus RIL
T1 sequence (P13053 1-423): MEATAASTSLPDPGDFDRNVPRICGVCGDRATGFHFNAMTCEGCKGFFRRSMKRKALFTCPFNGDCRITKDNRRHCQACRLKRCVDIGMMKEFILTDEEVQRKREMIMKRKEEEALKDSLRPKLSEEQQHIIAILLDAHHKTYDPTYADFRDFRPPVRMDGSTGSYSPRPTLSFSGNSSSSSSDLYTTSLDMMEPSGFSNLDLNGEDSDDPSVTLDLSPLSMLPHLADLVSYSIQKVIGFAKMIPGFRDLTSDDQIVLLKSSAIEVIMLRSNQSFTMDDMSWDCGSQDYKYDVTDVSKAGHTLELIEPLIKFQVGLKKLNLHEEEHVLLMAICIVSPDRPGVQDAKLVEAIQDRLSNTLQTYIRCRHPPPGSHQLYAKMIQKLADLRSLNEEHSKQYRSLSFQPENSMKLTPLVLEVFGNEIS
Kind of assay: Vitamin D receptor competitive binding with [3H]-1,25(OH)2D3. Particulars: FIG. 1. The procedure:
Full-length recombinant rat receptor was expressed in E. coli BL21 (DE3) Codon Plus RIL cells and purified to homogeneity using two different column chromatography systems. The first system was a nickel affinity resin that utilizes the C-terminal histidine tag on this protein. The protein that was eluted from this resin was further purified using ion exchange chromatography (S-Sepharose Fast Flow). Aliquots of the purified protein were quick frozen in liquid nitrogen and stored at −80° C. until use. For use in binding assays, the protein was diluted in TEDK50 (50 mM Tris, 1.5 mM EDTA, pH7.4, 5 mM DTT, 150 mM KCl) with 0.1% Chaps detergent. The receptor protein and ligand concentration were optimized such that no more than 20% of the added radiolabeled ligand was bound to the receptor.
Radiolabeled and unlabeled ligands were added to 100 mcl of the diluted protein at a final ethanol concentration of ≦10%, mixed and incubated overnight on ice to reach binding equilibrium. The following day, 100 mcl of hydroxylapatite slurry (50%) was added to each tube and mixed at 10-minute intervals for 30 minutes. The hydroxylapaptite was collected by centrifugation and then washed three times with Tris-EDTA buffer (50 mM Tris, 1.5 mM EDTA, pH 7.4) containing 0.5% Titron X-100. […] Total binding was determined from the tubes containing only radiolabeled ligand.

Another assay deals with HL-60 cells. Put plainly: HL-60 cell differentiation (nitro blue tetrazolium reduction). Type of assay: cell-based, human. The settings on record: for EC50: HL-60 cells into monocytes, FIG. 2. The procedure:
The study drugs were dissolved in ethanol and the concentrations determined using UV spectrophotometry. Serial dilutions were prepared so that a range of drug concentrations could be tested without changing the final concentration of ethanol (≦0.2%) present in the cell cultures.
Human promyelocytic leukemia (HL60) cells were grown in RPMI-1640 medium containing 10% fetal bovine serum. The cells were incubated at 37° C. in the presence of 5% CO2.
HL60 cells were plated at 1.2×10^5 cells/ml. Eighteen hours after plating, cells in duplicate were treated with drug. Four days later, the cells were harvested and a nitro blue tetrazolium reduction assay was performed (Collins et al., 1979; J. Exp. Med. 149:969-974). The percentage of differentiated cells was determined by counting a total of 200 cells and recording the number that contained intracellular black-blue formazan deposits. Verification of differentiation to monocytic cells was determined by measuring phagocytic activity (data not shown).

Assay [2] deals with 24-hydroxylase (24Ohase) gene promoter in ROS 17/2.8 (bone) cells. Kind of assay: In vitro transcription assay (24-hydroxylase gene promoter, luciferase reporter). In kind it is cell-based. The settings on record: ROS 17/2.8 cells, 24-hydroxylase promoter-luciferase; FIG. 3; read-out: EC50, transcriptional activity in bone cells. The protocol:
Transcription activity was measured in ROS 17/2.8 (bone) cells that were stably transfected with a 24-hydroxylase (24Ohase) gene promoter upstream of a luciferase reporter gene (Arbour et al., 1998). Cells were given a range of doses. Sixteen hours after dosing the cells were harvested and luciferase activities were measured using a luminometer.
RLU=relative luciferase units.

The test system of assay [3] is bone calcium mobilization. Put plainly: Bone calcium mobilization (serum calcium) in vitamin D-deficient rats. Particulars: FIG. 4; for mobilization of bone calcium (serum calcium): ip, 4 consecutive days, rats on 0.02% Ca diet. In kind it is in vivo, rat. The protocol: (§1) Male, weanling Sprague-Dawley rats were placed on Diet 11 (0.47% Ca) diet+AEK oil for one week followed by Diet 11 (0.02% Ca)+AEK oil for 3 weeks. The rats were then switched to a diet containing 0.47% Ca for one week followed by two weeks on a diet containing 0.02% Ca. Dose administration began during the last week on 0.02% calcium diet. Four consecutive ip doses were given approximately 24 hours apart. Twenty-four hours after the last dose, blood was collected from the severed neck and the concentration of serum calcium determined as a measure of bone calcium mobilization. The first 10 cm of the intestine was also collected for intestinal calcium transport analysis using the everted gut sac method.

In assay [4] the test system is intestinal calcium transport. Put plainly: Intestinal calcium transport (everted gut sac method) in vitamin D-deficient rats. In kind it is in vivo, rat. The settings on record: FIG. 5; for intestinal calcium transport: 260 pmol/day, ip, 4 consecutive days, everted gut sac. The protocol:
as §1

Regarding `C=C1[C@H](O)CC(=C/C=C2\CCC[C@]3(C)[C@@H](C(=C)CCCC(C)(C)O)CC[C@@H]23)C[C@H]1O` [Vit III 20-21, 2-methylene-20(21)-dehydro-19-nor-1α,25-dihydroxyvitamin D3], in assay [1] (full-length recombinant rat VDR, read-out: Ki, competition with [3H]-1,25(OH)2D3 for binding to the vitamin D receptor), the Ki was 0.1 nM. The “VDR binding affinity compared to 1,25(OH)2D3” value in assay [1] (in words) is listed as “same affinity”. The values for the EC50 (in the assay on HL-60 cells (Homo sapiens); in assay [2]) were 0.7 nM and 2 nM, respectively. Further, in the assay on HL-60 cells (compared to 1,25(OH)2D3), the “potency on HL-60 cell differentiation relative to 1,25(OH)2D3” value is on record as 3 to 4 times. In addition, the “mobilization of bone calcium (serum calcium)” value in assay [3] (260 pmol/day) is recorded as “did not result in mobilization of bone calcium”; in assay [3] (2340 pmol/day), “substantial effect”. For the same compound, the “bone calcium mobilization activity compared to 1,25(OH)2D3” value in assay [3] (in words) is “less bone calcium mobilization activity”. In addition, the intestinal calcium transport entry in assay [4] is given as “promotes intestinal calcium transport”. Besides, in assay [4] (in words), the “intestinal calcium transport activity compared to 1,25(OH)2D3” value is on record as “about the same activity”.

As for `C=C1/C(=C\C=C2/CCC[C@]3(C)[C@@H]([C@H](C)CCCC(C)(C)O)CC[C@@H]23)C[C@@H](O)C[C@@H]1O` [1,25(OH)2D3, 1α,25-dihydroxyvitamin D3, reference compound], the EC50 with HL-60 cells turned out to be 2 nM; in assay [2], 0.3 nM. Besides, the “mobilization of bone calcium (serum calcium)” value in assay [3] (260 pmol/day) is recorded as “increased serum calcium levels”. In addition, the intestinal calcium transport result in assay [4] is on record as “significant increase”.

One may read the Ki as a measure of affinity in units of concentration, obtained from inhibition or displacement. One may read the EC50 as the concentration that produces a half-maximal response.
